ChEMBL document CHEMBL1201862, “PubChem BioAssay data set” (2004)
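1) Cells in 96-well plates. 2) Compound, 48 h, 5 concentrations. 3) Linear interpolation between surrounding doses. 4) Unreached endpoint = highest concentration. Abbreviation: GI50, concentration required for 50% inhibition of growth.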 Calls of active or inactive are those of the source. Cut-off read from the data, not from the text of the source: active = GI50 up to about 1.1 µM and inactive = higher.

Tests used:
Assay in all cases: inhibition of tumour cell growth, NCI panel, 48 h
[1] = tested on: 786-0
[2] = tested on: A498
[3] = tested on: A549
[4] = tested on: ACHN
[5] = tested on: BT-549
[6] = tested on: CAKI-1
[7] = tested on: CCRF-CEM
[8] = tested on: COLO 205
[9] = tested on: DU-145
[10] = tested on: EKVX
[11] = tested on: HCC 2998
[12] = tested on: HCT-116
[13] = tested on: HCT-15
[14] = tested on: HL-60
[15] = tested on: HOP-62
[16] = tested on: HOP-92
[17] = tested on: HT-29
[18] = tested on: Hs-578T
[19] = tested on: IGROV-1
[20] = tested on: K562
[21] = tested on: KM12
[22] = tested on: LOX IMVI
[23] = tested on: M14
[24] = tested on: MCF7
[25] = tested on: MDA-MB-231
[26] = tested on: MDA-MB-435
[27] = tested on: MDA-N
[28] = tested on: MOLT-4
[29] = tested on: NCI-H226
[30] = tested on: NCI-H23
[31] = tested on: NCI-H460
[32] = tested on: NCI-H522
[33] = tested on: NCI/ADR-RES
[34] = tested on: OVCAR-3
[35] = tested on: OVCAR-4
[36] = tested on: OVCAR-5
[37] = tested on: OVCAR-8
[38] = tested on: PC-3
[39] = tested on: RPMI-8226
[40] = tested on: SF-268
[41] = tested on: SF-295
[42] = tested on: SF-539
[43] = tested on: SK-MEL-28
[44] = tested on: SK-MEL-2
[45] = tested on: SK-MEL-5
[46] = tested on: SK-OV-3
[47] = tested on: SN12C
[48] = tested on: SNB-19
[49] = tested on: SNB-75
[50] = tested on: SR
[51] = tested on: SW-620
[52] = tested on: T47D
[53] = tested on: TK-10
[54] = tested on: U-251
[55] = tested on: UACC-257
[56] = tested on: UACC-62
[57] = tested on: UO-31
[58] = tested on: Malme-3M
[59] = tested on: RXF 393

**Q.** With `CC(=O)O[C@@H]1C[C@@]2(C)[C@@H]3CC=C4[C@@H](C[C@H](O)C(=O)C4(C)C)[C@]3(C)C(=O)C[C@]2(C)[C@H]1[C@@](C)(O)C(=O)/C=C/C(C)(C)OC(C)=O` as the molecule, how does the GI50 [1] read?
**A.** 0.352 µM (active)

**Q.** And the GI50 [2]?
**A.** 0.0151 µM (active)

**Q.** And the GI50 [3]?
**A.** 0.881 µM (active)

**Q.** And the GI50 [4]?
**A.** 0.16 µM (active)

**Q.** And the GI50 [5]?
**A.** 0.336 µM (active)

**Q.** What about the GI50 [6] of the same molecule?
**A.** 0.211 µM (active)

**Q.** What about the GI50 [7] of the same molecule?
**A.** 1.61 µM (inactive)

**Q.** What about the GI50 [8] of the same molecule?
**A.** 1.5 µM (inactive)

**Q.** What about the GI50 [9] of the same molecule?
**A.** 2.03 µM (inactive)

**Q.** What about the GI50 [10] of the same molecule?
**A.** 2.72 µM (inactive)

**Q.** And the GI50 [11]?
**A.** 0.035 µM (active)

**Q.** What about the GI50 [12] of the same molecule?
**A.** 1.63 µM (inactive)

**Q.** And the GI50 [13]?
**A.** 0.875 µM

**Q.** And the GI50 [14]?
**A.** 0.746 µM (active)

**Q.** And the GI50 [15]?
**A.** 0.731 µM (active)

**Q.** And the GI50 [16]?
**A.** 0.912 µM (active)

**Q.** And the GI50 [17]?
**A.** 1.08 µM (active)

**Q.** What about the GI50 [18] of the same molecule?
**A.** 4.71 µM (inactive)

**Q.** What about the GI50 [19] of the same molecule?
**A.** 0.368 µM (active)

**Q.** And the GI50 [20]?
**A.** 1.51 µM (inactive)

**Q.** And the GI50 [21]?
**A.** 4.84 µM (inactive)

**Q.** What about the GI50 [22] of the same molecule?
**A.** 2.74 µM (inactive)

**Q.** What about the GI50 [23] of the same molecule?
**A.** 0.592 µM (active)

**Q.** What about the GI50 [24] of the same molecule?
**A.** 3.57 µM (inactive)

**Q.** What about the GI50 [25] of the same molecule?
**A.** 2.78 µM (inactive)

**Q.** And the GI50 [26]?
**A.** 1.01 µM (active)

**Q.** What about the GI50 [27] of the same molecule?
**A.** 1.37 µM (inactive)

**Q.** What about the GI50 [28] of the same molecule?
**A.** 3.33 µM (inactive)

**Q.** And the GI50 [29]?
**A.** 0.338 µM (active)

**Q.** And the GI50 [30]?
**A.** 5.26 µM (inactive)

**Q.** And the GI50 [31]?
**A.** 0.428 µM (active)

**Q.** And the GI50 [32]?
**A.** 0.541 µM (active)

**Q.** What about the GI50 [33] of the same molecule?
**A.** 3.64 µM (inactive)

**Q.** What about the GI50 [34] of the same molecule?
**A.** 4.81 µM (inactive)

**Q.** What about the GI50 [35] of the same molecule?
**A.** 0.789 µM (active)

**Q.** And the GI50 [36]?
**A.** 12.8 µM (inactive)

**Q.** And the GI50 [37]?
**A.** 1.47 µM (inactive)

**Q.** And the GI50 [38]?
**A.** 1.59 µM (inactive)

**Q.** And the GI50 [39]?
**A.** 2.02 µM (inactive)

**Q.** What about the GI50 [40] of the same molecule?
**A.** 1.01 µM (active)

**Q.** What about the GI50 [41] of the same molecule?
**A.** 1.2 µM (inactive)

**Q.** What about the GI50 [42] of the same molecule?
**A.** 1.25 µM (inactive)

**Q.** And the GI50 [43]?
**A.** 0.365 µM (active)

**Q.** What about the GI50 [44] of the same molecule?
**A.** 1.26 µM (inactive)

**Q.** What about the GI50 [45] of the same molecule?
**A.** 1.99 µM (inactive)

**Q.** What about the GI50 [46] of the same molecule?
**A.** < 0.0251 µM (active)

**Q.** What about the GI50 [47] of the same molecule?
**A.** 0.957 µM (active)

**Q.** And the GI50 [48]?
**A.** 3.21 µM (inactive)

**Q.** And the GI50 [49]?
**A.** 1.85 µM (inactive)

**Q.** And the GI50 [50]?
**A.** 3.33 µM (inactive)

**Q.** What about the GI50 [51] of the same molecule?
**A.** 0.516 µM (active)

**Q.** What about the GI50 [52] of the same molecule?
**A.** 10.1 µM (inactive)

**Q.** And the GI50 [53]?
**A.** 0.0787 µM (active)

**Q.** What about the GI50 [54] of the same molecule?
**A.** 0.617 µM (active)

**Q.** And the GI50 [55]?
**A.** 0.594 µM (active)

**Q.** And the GI50 [56]?
**A.** 2.63 µM (inactive)

**Q.** And the GI50 [57]?
**A.** 0.298 µM (active)

**Q.** Which results are given for `Cc1cccc(NC(=O)/C=C/c2ccc([N+](=O)[O-])cc2)c1`?
**A.** GI50 [1]: > 34.6 µM (inactive); GI50 [2]: > 100 µM (inactive); GI50 [3]: > 41.7 µM (inactive); GI50 [4]: 14.9 µM (inactive); GI50 [5]: > 34.5 µM (inactive); GI50 [6]: > 39.3 µM (inactive); GI50 [7]: 16 µM (inactive); GI50 [8]: > 41.1 µM (inactive); GI50 [9]: > 38.7 µM (inactive); GI50 [10]: 23.2 µM (inactive); GI50 [11]: 16.6 µM (inactive); GI50 [12]: > 36.9 µM (inactive); GI50 [13]: > 35.1 µM; GI50 [15]: 16.7 µM (inactive); GI50 [16]: 15.8 µM (inactive); GI50 [17]: 35 µM (inactive); GI50 [18]: 48.1 µM (inactive); GI50 [19]: 18.5 µM (inactive); GI50 [20]: > 29.4 µM (inactive); GI50 [21]: > 33.3 µM (inactive); GI50 [22]: > 36.3 µM (inactive); GI50 [23]: > 43.4 µM (inactive); GI50 [24]: > 22.3 µM (inactive); GI50 [25]: 22.4 µM (inactive); GI50 [26]: > 36.6 µM (inactive); GI50 [27]: > 30.7 µM (inactive); GI50 [28]: > 36.4 µM (inactive); GI50 [58]: 0.838 µM (active); GI50 [29]: > 46.7 µM (inactive); GI50 [30]: 16.4 µM (inactive); GI50 [31]: > 43.5 µM (inactive); GI50 [32]: 7.45 µM (inactive); GI50 [33]: 29.8 µM (inactive); GI50 [34]: 12.5 µM (inactive); GI50 [35]: > 41.4 µM (inactive); GI50 [36]: > 42.6 µM (inactive); GI50 [37]: > 37.2 µM (inactive); GI50 [38]: 14.7 µM (inactive); GI50 [59]: 34 µM (inactive); GI50 [40]: 38.3 µM (inactive); GI50 [41]: 29 µM (inactive); GI50 [42]: > 29.8 µM (inactive); GI50 [43]: > 42 µM (inactive); GI50 [44]: 20 µM (inactive); GI50 [45]: > 36.4 µM (inactive); GI50 [46]: > 46.5 µM (inactive); GI50 [47]: > 41.2 µM (inactive); GI50 [48]: > 33.2 µM (inactive); GI50 [49]: 30.1 µM (inactive); GI50 [50]: 11.7 µM (inactive); GI50 [51]: > 45.3 µM (inactive); GI50 [52]: > 37.8 µM (inactive); GI50 [53]: > 41.5 µM (inactive); GI50 [54]: > 38 µM (inactive); GI50 [55]: > 39 µM (inactive); GI50 [56]: > 41.9 µM (inactive); GI50 [57]: > 35.5 µM (inactive)
